Data as given in patent publication US20110105493A1, “HETEROCYCLYL SUBSTITUTED ARYLINDENOPYRIMIDINES AND THEIR USE AS HIGHLY SELECTIVE ADENOSINE A2a RECEPTOR ANTAGONISTS” (priority 2009, published 2011).
pIC50: −log10 of the molar value.

What was measured:
[1] = molecular target: T1, human adenosine A1 receptor (Homo sapiens, UniProt P30542); assay: Adenosine A1 Receptor Functional Assay (A1GAL2); type: cell-based; settings: CHO-K1 cells overexpressing human A1 receptor, cAMP inducible beta-galactosidase reporter, 4 nM r-PIA/1 uM Forskolin agonist challenge
T1 construct: expressed in transfected cells; host or cells: CHO-K1 cells with a cAMP inducible beta-galactosidase reporter gene
T1 sequence (P30542 1-326): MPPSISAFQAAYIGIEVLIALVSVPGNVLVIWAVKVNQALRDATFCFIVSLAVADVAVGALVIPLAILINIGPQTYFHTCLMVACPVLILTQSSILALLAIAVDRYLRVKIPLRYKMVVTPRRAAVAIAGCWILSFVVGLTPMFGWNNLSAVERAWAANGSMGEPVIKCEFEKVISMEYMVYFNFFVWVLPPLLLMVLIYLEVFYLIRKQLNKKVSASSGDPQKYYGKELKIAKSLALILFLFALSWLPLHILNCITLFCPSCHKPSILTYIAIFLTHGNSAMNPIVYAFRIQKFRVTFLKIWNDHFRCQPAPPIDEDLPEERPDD
Procedure: Adenosine A1 Receptor Functional Assay (A1GAL2)
To initiate the functional assay, cryopreserved CHO—K1 cells overexpressing the human adenosine A1 receptor and containing a cAMP inducible beta-galactosidase reporter gene were thawed, centrifuged, DMSO containing media removed, and then seeded with fresh culture media into clear 384-well tissue culture treated plates (BD #353961) at a concentration of 10K cells/well. Prior to assay, these plates were cultured for two days at 37° C., 5% CO2, 90% Rh. On the day of the functional assay, culture media was removed and replaced with 45 μL assay medium (Hams/F-12 Modified (Mediatech # 10-080CV) supplemented w/0.1% BSA). Test compounds were diluted and 11 point curves created at a 1000× concentration in 100% DMSO. Immediately after addition of assay media to the cell plates, 50 nL of the appropriate test compound antagonist or agonist control curves were added to cell plates using a Cartesian Hummingbird. Compound curves were allowed to incubate at room temperature on cell plates for approximately 15 minutes before addition of a 4 nM r-PIA (Sigma P4532)/1 uM Forskolin (Sigma F3917) agonist challenge (5 μL volume). A control curve of r-PIA in1 uM Forskolin, a DMSO/Media control, and a single dose of Forskolin were also included on each plate. After additions, cell plates were allowed to incubate at 37° C., 5% CO2, 90% Rh for 5.5-6 hours. After incubation, media was removed, and cell plates were washed 1×50 μL with DPBS w/o Ca & Mg (Mediatech 21-031-CV). Into dry wells, 20 μL of 1×Reporter Lysis Buffer (Promega E3971 (diluted in dH2O from 5× stock)) was added to each well and plates frozen at −20° C. overnight. For β-galactosidase enzyme colorimetric assay, plates were thawed out at room temperature and 20 μL 2×assay buffer (Promega) was added to each well. Color was allowed to develop at 37° C., 5% CO2, 90% Rh for 1-1.5 h or until reasonable signal appeared. The colorimetric reaction was stopped with the addition of 60 μL/well 1M sodium carbonate. Plates were counted at 405 nm on a SpectraMax Microplate Reader (Molecular Devices). Data was analyzed in Microsoft Excel and IC/EC50 curves were fit using a standardized macro.

[2] = molecular target: T2, human adenosine A2A receptor (Homo sapiens, UniProt P29274); assay: Adenosine A2A Receptor Functional Assay (A2A GAL2); type: cell-based; settings: for pIC50: CHO-K1 cells overexpressing human A2A receptor, cAMP inducible beta-galactosidase reporter, 15 nM NECA agonist challenge, read-out: A2AGal2; for A1/A2A: ratio of A1Gal2 to A2AGal2 values
T2 construct: expressed in transfected cells; host or cells: CHO-K1 cells with a cAMP inducible beta-galactosidase reporter gene
Procedure: Adenosine A2A Receptor Functional Assay (A2A GAL2)
To initiate the functional assay, cryopreserved CHO—K1 cells overexpressing the human adenosine A2A receptor and containing a cAMP inducible beta-galactosidase reporter gene were thawed, centrifuged, DMSO containing media removed, and then seeded with fresh culture media into clear 384-well tissue culture treated plates (BD #353961) at a concentration of 10K cells/well. Prior to assay, these plates were cultured for two days at 37° C., 5% CO2, 90% Rh. On the day of the functional assay, culture media was removed and replaced with 45 μL assay medium (Hams/F-12 Modified (Mediatech # 10-080CV) supplemented w/0.1% BSA). Test compounds were diluted and 11 point curves created at a 1000× concentration in 100% DMSO. Immediately after addition of assay media to the cell plates, 50 nL of the appropriate test compound antagonist or agonist control curves were added to cell plates using a Cartesian Hummingbird. Compound curves were allowed to incubate at room temperature on cell plates for approximately 15 minutes before addition of a 15 nM NECA (Sigma E2387) agonist challenge (5 μL volume). A control curve of NECA, a DMSO/Media control, and a single dose of Forskolin (Sigma F3917) were also included on each plate. After additions, cell plates were allowed to incubate at 37° C., 5% CO2, 90% Rh for 5.5-6 hours. After incubation, media were removed, and cell plates were washed 1×50 μL with DPBS w/o Ca & Mg (Mediatech 21-031-CV). Into dry wells, 20 μL of 1×Reporter Lysis Buffer (Promega E3971 (diluted in dH2O from 5× stock)) was added to each well and plates frozen at −20° C. overnight. For β-galactosidase enzyme colorimetric assay, plates were thawed out at room temperature and 20 μL 2× assay buffer (Promega) was added to each well. Color was allowed to develop at 37° C., 5% CO2, 90% Rh for 1-1.5 h or until reasonable signal appeared. The colorimetric reaction was stopped with the addition of 60 μL/well 1M sodium carbonate. Plates were counted at 405 nm on a SpectraMax Microplate Reader (Molecular Devices). Data was analyzed in Microsoft Excel and IC/EC50 curves were fit using a standardized macro.

T2 sequence (P29274 whole entry): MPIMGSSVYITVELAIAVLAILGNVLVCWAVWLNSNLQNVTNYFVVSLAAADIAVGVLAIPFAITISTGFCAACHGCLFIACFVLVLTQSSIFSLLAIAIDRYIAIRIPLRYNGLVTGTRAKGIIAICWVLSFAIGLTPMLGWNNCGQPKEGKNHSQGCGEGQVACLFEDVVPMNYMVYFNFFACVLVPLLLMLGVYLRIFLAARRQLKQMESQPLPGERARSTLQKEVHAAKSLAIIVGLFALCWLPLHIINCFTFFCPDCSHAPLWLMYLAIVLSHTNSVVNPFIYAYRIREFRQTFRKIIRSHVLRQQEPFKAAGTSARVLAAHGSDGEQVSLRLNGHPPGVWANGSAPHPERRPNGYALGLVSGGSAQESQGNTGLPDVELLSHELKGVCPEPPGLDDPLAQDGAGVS

CC(=O)c1ccc(N2CCN(c3cccc4c3-c3nc(N)nc(-c5ccccc5)c3C4=O)CC2)cc1 [Example 1, 9-[4-(4-Acetyl-phenyl)-piperazin-1-yl]-2-amino-4-phenyl-indeno[1,2-d]pyrimidin-5-one]
pIC50 [1]: 5.39 | pIC50 [2]: 9.70 | A1/A2A [2]: 20250

Nc1nc(-c2ccccc2)c2c(n1)-c1c(cccc1N1CCN(c3ccc(F)cn3)CC1)C2=O [Example 2, 2-Amino-9-[4-(5-fluoro-pyridin-2-yl)-piperazin-1-yl]-4-phenyl-indeno[1,2-d]pyrimidin-5-one]
pIC50 [1]: 5.02 | pIC50 [2]: 8.80 | A1/A2A [2]: 5937.5

N#Cc1ccc(N2CCN(c3cccc4c3-c3nc(N)nc(-c5ccccc5)c3C4=O)CC2)cc1 [Example 3, 4-[4-(2-Amino-5-oxo-4-phenyl-5H-indeno[1,2-d]pyrimidin-9-yl)-piperazin-1-yl]-benzonitrile]
pIC50 [1]: 5.46 | pIC50 [2]: 9.22 | A1/A2A [2]: 5833.33

Nc1nc(-c2ccccc2)c2c(n1)-c1c(cccc1N1CCN(c3ccccc3F)CC1)C2=O [Example 4, 2-Amino-9-[4-(2-fluoro-phenyl)-piperazin-1-yl]-4-phenyl-indeno[1,2-d]pyrimidin-5-one]
pIC50 [1]: 5.72 | pIC50 [2]: 8.92 | A1/A2A [2]: 1583.33

COCCOc1ccc(N2CCN(c3cccc4c3-c3nc(N)nc(-c5ccccc5)c3C4=O)CC2)c(F)c1 [Example 5, 2-Amino-9-{4-[2-fluoro-4-(2-methoxy-ethoxy)-phenyl]-piperazin-1-yl}-4-phenyl-indeno[1,2-d]pyrimidin-5-one]
pIC50 [1]: 6.12 | pIC50 [2]: 9.31 | A1/A2A [2]: 1530.61

Nc1nc(-c2ccccc2)c2c(n1)-c1c(cccc1N1CCN(c3ccc(F)cc3F)CC1)C2=O [Example 6, 2-Amino-9-[4-(2,4-difluoro-phenyl)-piperazin-1-yl]-4-phenyl-indeno[1,2-d]pyrimidin-5-one]
pIC50 [1]: 5.54 | pIC50 [2]: 8.59 | A1/A2A [2]: 1115.38

N#Cc1ccccc1N1CCN(c2cccc3c2-c2nc(N)nc(-c4ccccc4)c2C3=O)CC1 [Example 7, 2-[4-(2-Amino-5-oxo-4-phenyl-5H-indeno[1,2-d]pyrimidin-9-yl)-piperazin-1-yl]-benzonitrile]
pIC50 [1]: 5.54 | pIC50 [2]: 8.57 | A1/A2A [2]: 1074.07

N#Cc1ccc(N2CCN(c3cccc4c3-c3nc(N)nc(-c5ccccc5)c3C4=O)CC2)nc1 [Example 8, 6-[4-(2-Amino-5-oxo-4-phenyl-5H-indeno[1,2-d]pyrimidin-9-yl)-piperazin-1-yl]-nicotinonitrile]
pIC50 [1]: 5.68 | pIC50 [2]: 8.57 | A1/A2A [2]: 777.778

Nc1nc(-c2ccccc2)c2c(n1)-c1c(cccc1N1CCN(c3ccc(C(F)(F)F)cc3)CC1)C2=O [Example 9, 2-Amino-4-phenyl-9-[4-(4-trifluoromethyl-phenyl)-piperazin-1-yl]-indeno[1,2-d]pyrimidin-5-one]
pIC50 [1]: 5.21 | pIC50 [2]: 8.09 | A1/A2A [2]: 765.432

Nc1nc(-c2ccccc2)c2c(n1)-c1c(cccc1N1CCN(c3ncccc3F)CC1)C2=O [Example 10, 2-Amino-9-[4-(3-fluoro-pyridin-2-yl)-piperazin-1-yl]-4-phenyl-indeno[1,2-d]pyrimidin-5-one]
pIC50 [1]: 5.72 | pIC50 [2]: 8.59 | A1/A2A [2]: 730.769

COCCOc1ccc(N2CCN(c3cccc4c3-c3nc(N)nc(-c5ccccc5)c3C4=O)CC2)cc1 [Example 11, 2-Amino-9-{4-[4-(2-methoxy-ethoxy)-phenyl]-piperazin-1-yl}-4-phenyl-indeno[1,2-d]pyrimidin-5-one]
pIC50 [1]: 6.60 | pIC50 [2]: 9.44 | A1/A2A [2]: 694.444

Nc1nc(-c2ccccc2)c2c(n1)-c1c(cccc1N1CCN(CCc3ccccc3)CC1)C2=O [Example 12, 2-Amino-9-(4-phenethyl-piperazin-1-yl)-4-phenyl-indeno[1,2-d]pyrimidin-5-one]
pIC50 [1]: 5.98 | pIC50 [2]: 8.64 | A1/A2A [2]: 463.233

Nc1nc(-c2ccccc2)c2c(n1)-c1c(cccc1N1CCC(O)(c3ccccc3)CC1)C2=O [Example 13, 2-Amino-9-(4-hydroxy-4-phenyl-piperidin-1-yl)-4-phenyl-indeno[1,2-d]pyrimidin-5-one]
pIC50 [1]: 6.51 | pIC50 [2]: 9.17 | A1/A2A [2]: 462.687

N#Cc1cccnc1N1CCN(c2cccc3c2-c2nc(N)nc(-c4ccccc4)c2C3=O)CC1 [Example 14, 2-[4-(2-Amino-5-oxo-4-phenyl-5H-indeno[1,2-d]pyrimidin-9-yl)-piperazin-1-yl]-nicotinonitrile]
pIC50 [1]: 5.85 | pIC50 [2]: 8.49 | A1/A2A [2]: 437.5

CS(=O)(=O)c1ccc(N2CCN(c3cccc4c3-c3nc(N)nc(-c5ccccc5)c3C4=O)CC2)cc1 [Example 15, 2-Amino-9-[4-(4-methanesulfonyl-phenyl)-piperazin-1-yl]-4-phenyl-indeno[1,2-d]pyrimidin-5-one]
pIC50 [1]: 7.00 | pIC50 [2]: 9.36 | A1/A2A [2]: 227.273

COc1ccc(N2CCN(c3cccc4c3-c3nc(N)nc(-c5ccccc5)c3C4=O)CC2)cc1 [Example 16, 2-Amino-9-[4-(4-methoxy-phenyl)-piperazin-1-yl]-4-phenyl-indeno[1,2-d]pyrimidin-5-one]
pIC50 [1]: 7.60 | pIC50 [2]: 9.85 | A1/A2A [2]: 178.571

Nc1nc(-c2ccccc2)c2c(n1)-c1c(cccc1N1CCN(c3ccccn3)CC1)C2=O [Example 17, 2-Amino-4-phenyl-9-(4-pyridin-2-yl-piperazin-1-yl)-indeno[1,2-d]pyrimidin-5-one]
pIC50 [1]: 6.70 | pIC50 [2]: 8.85 | A1/A2A [2]: 142.857

COc1ccc(C2CCN(c3cccc4c3-c3nc(N)nc(-c5ccccc5)c3C4=O)CC2)cc1 [Example 18, 2-Amino-9-[4-(4-methoxy-phenyl)-piperidin-1-yl]-4-phenyl-indeno[1,2-d]pyrimidin-5-one]
pIC50 [1]: 6.22 | pIC50 [2]: 8.35 | A1/A2A [2]: 133.333

CCCN1CCN(c2cccc3c2-c2nc(N)nc(-c4ccccc4)c2C3=O)CC1 [Example 19, 2-Amino-4-phenyl-9-(4-propyl-piperazin-1-yl)-indeno[1,2-d]pyrimidin-5-one]
pIC50 [1]: 5.96 | pIC50 [2]: 7.99 | A1/A2A [2]: 104.858

NC(=O)c1ccc(C2CCN(c3cccc4c3-c3nc(N)nc(-c5ccccc5)c3C4=O)CC2)cc1 [Example 20, 4-[1-(2-Amino-5-oxo-4-phenyl-5H-indeno[1,2-d]pyrimidin-9-yl)-piperidin-4-yl]-benzamide]
pIC50 [1]: 6.82 | pIC50 [2]: 8.82 | A1/A2A [2]: 100
